Among the data in US20070185197A1, “Phenol derivative, medicinal composition containing the same, and medicinal use thereof” (priority 2004, published 2007) are IC50 values, retold here.

The target in this assay is T1, human SGLT2 (Homo sapiens, UniProt P31639).
T1 construct: expressed in transfected cells
T1 sequence (P31639 1-672): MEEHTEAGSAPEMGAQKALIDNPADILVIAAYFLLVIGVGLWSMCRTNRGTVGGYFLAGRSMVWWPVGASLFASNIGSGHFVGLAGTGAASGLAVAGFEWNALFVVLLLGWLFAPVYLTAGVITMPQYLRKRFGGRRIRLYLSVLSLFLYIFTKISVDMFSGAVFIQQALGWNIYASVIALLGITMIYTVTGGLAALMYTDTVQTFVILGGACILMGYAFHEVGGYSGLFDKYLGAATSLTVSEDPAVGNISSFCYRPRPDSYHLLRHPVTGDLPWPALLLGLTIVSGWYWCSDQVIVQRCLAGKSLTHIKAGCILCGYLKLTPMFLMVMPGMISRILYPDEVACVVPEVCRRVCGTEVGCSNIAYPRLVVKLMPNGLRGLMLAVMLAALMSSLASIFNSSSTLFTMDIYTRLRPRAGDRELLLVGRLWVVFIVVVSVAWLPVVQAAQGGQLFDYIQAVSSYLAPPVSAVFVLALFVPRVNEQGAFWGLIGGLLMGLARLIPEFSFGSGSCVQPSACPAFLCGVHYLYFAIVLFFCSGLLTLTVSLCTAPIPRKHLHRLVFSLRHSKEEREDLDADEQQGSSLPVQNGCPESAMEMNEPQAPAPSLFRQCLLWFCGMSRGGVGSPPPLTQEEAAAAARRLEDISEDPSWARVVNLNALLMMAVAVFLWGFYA
The assay can be described thus: Assay for inhibitory effects on human SGLT2 activity (uptake of methyl-α-D-glucopyranoside in CS2-5E cells). The settings on record: inhibition of 14C-labeled α-MG uptake (1 mM), CHO-K1 cells stably expressing human SGLT2 (CS2-5E), 37° C., 1 hour. The format is cell-based. How it is done:
Assay for Inhibitory Effects on Human SGLT2 Activity 1) Cloning and Construction of the Vector Expressing Human SGLT2 The cDNA library was prepared for PCR amplification by reverse transcription from total RNA deprived from human kidney (Ori gene) using oligo-dT as a primer. Using this cDNA library as a template, the DNA fragment coding 2 to 2039 bp of human SGLT2 (ACCESSION: M95549, M95299), which was reported by R. G. Wells et al., was amplified by PCR method and inserted into the multi-cloning site of pcDNA3.1 (−) (Invitrogen). The DNA sequence inserted was perfectly matched to the previously reported sequence. 2) Establishment of Cell Line Stably Expressing Human SGLT2 The expression vector of human SGLT2 was digested by Sca I into a linear DNA. The linear DNA was transfected into CHO-K1 cells by means of lipofection (Effectene Transfection Reagent: QIAGEN). Neomycin resistant cell lines were selected by culture in the medium containing G418 (1 mg/mL, LIFE TECHNOLOGIES), and then the activity against the uptake of methyl-α-D-glucopyranoside was measured by the method described below. […] Radioactivity was measured by means of micro-scintillation counter TopCount (Packard). One hundred % was set to the difference between the uptake in the control group and the basal uptake, and the uptake of methyl α-D-glucopyranoside at each drug concentration were calculated. […]

With `COc1ccc(Cc2ccccc2O[C@@H]2O[C@H](CF)[C@@H](O)[C@H](O)[C@H]2O)cc1` [Example 1, 2-(4-Methoxybenzyl)phenyl 6-deoxy-6-fluoro-β-D-glucopyranoside], it took 86 nM to reach half-maximal inhibition (IC50).

What is called IC50 is the concentration needed to halve the response being measured.
